In assay [1] the target is T1, BCL6 (Homo sapiens (Human), UniProt P41182). Briefly: BCL6 TR-FRET assay (BCL6-Avitag-Biotin / BCoR-Cy5 peptide). The format is binding. An outline of the steps:
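After 30 min room-temperature preincubation of compound titrations with 2 nM biotinylated BCL6-Avitag, 100 nM Cy5-labelled BCoR peptide plus 2 nM Eu-streptavidin were added and TR-FRET read 2 h later. HEPES pH 7.5/125 mM NaCl buffer with Triton X, glutathione (or DTT) and BSA.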
In general terms: TR-FRET usually uses a lanthanide donor and a delayed reading to cut background.

Assay [2] deals with T1, BCL6. Briefly: Immunofluorescence high content imaging of BCL6 degradation in T47D cells. The format is cell-based. The note with it: for Dmax: T47D; for DC50: class symbols A-D, read-out: EC50 (nM)*. An outline of the steps: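 T47D, 3 d compound exposure, 11-pt 3-fold series, top 0.1 or 1 μM final. Fix 4% PFA, Triton permeabilize, anti-BCL6 primary overnight 4 °C, Alexa-488 secondary. High-content imaging 10×, 4 fields/well, top-hat smoothing.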

Where [3] appears, read: class symbols A-D, read-out: IC50 (nM)***.

As usually defined, the IC50 is the point on the concentration scale where inhibition reaches its midpoint. In general, Dmax refers to the greatest extent of degradation seen. Read a high Dmax as deep degradation. As a reminder, the EC50 is the midpoint of the concentration-response curve. Low readings indicate higher potency in that assay, high ones lower potency in that assay.

As to `CNC(=O)COc1cc2cc(Nc3nc(N4CC5(CCC(OC6CCN(c7ccc8c(c7)C(=O)N(C7CCC(=O)NC7=O)C8=O)CC6)CC5)C4)ncc3Cl)ccc2n(C(C)C)c1=O` (stereo not shown) [compound 444, 2-{[6-({5-chloro-2-[7-({1-[2-(2,6-dioxopiperidin-3-yl)-1,3-dioxo-2,3-dihydro-1H-isoindol-5-yl]piperidin-4-yl}oxy)-2-azaspiro[3.5]nonan-2-yl]pyrimidin-4-yl}amino)-2-oxo-1-(propan-2-yl)-1,2-dihydroquinolin-3-yl]oxy}-N-methylacetamide], the IC50 at BCL6 [1] (read-out: IC50) is less than 10 nM. Besides, the Dmax at BCL6 [2] was in the range of 50 to 70%.
In the case of `CNC(=O)COc1cc2cc(Nc3nc(N4CCCC(COc5ccc(C6CCN(CC#Cc7ccc8c(c7)CN(C7CCC(=O)NC7=O)C8=O)CC6)cc5)C4)ncc3Cl)ccc2n(C)c1=O` (stereo not shown) [compound 167, 2-((6-((5-chloro-2-(3-((4-(1-(3-(2-(2,6-dioxopiperidin-3-yl)-1-oxoisoindolin-5-yl)prop-2-yn-1-yl)piperidin-4-yl)phenoxy)methyl)piperidin-1-yl)pyrimidin-4-yl)amino)-1-methyl-2-oxo-1,2-dihydroquinolin-3-yl)oxy)-N-methylacetamide], at BCL6 [1] (setting [3]), the concentration for half-maximal inhibition (IC50) lay within 10 to 50 nM. Moreover, the maximal degradation (Dmax) at BCL6 [2] (maximum, class symbols A-C) was less than 50%. Moreover, on BCL6 [2], the DC50 is greater than 100 nM.
As to `CN1C(=O)CCc2cc(Nc3nc(N4CCN(CC5CCN(c6ccc7c(c6)C(=O)N(C6CCC(=O)NC6=O)C7=O)CC5)CC4)ncc3Cl)ccc21` (stereo not shown) [compound 369, 5-{4-[(4-{5-chloro-4-[(1-methyl-2-oxo-1,2,3,4-tetrahydroquinolin-6-yl)amino]pyrimidin-2-yl}piperazin-1-yl)methyl]piperidin-1-yl}-2-(2,6-dioxopiperidin-3-yl)-2,3-dihydro-1H-isoindole-1,3-dione], on BCL6 [1], the EC50 was greater than 100 nM. On BCL6 [2] (T47D cells), this compound showed an IC50 of no less than 100 nM.
On to `CNC(=O)c1cc2cc(Nc3nc(N4CCC(CN5CCN(c6ccc7c(c6)C(=O)N(C6CCC(=O)NC6=O)C7=O)CC5)CC4)ncc3Cl)ccc2n(C)c1=O` (stereo not shown) [compound 214, 6-((5-chloro-2-(4-((4-(2-(2,6-dioxopiperidin-3-yl)-1,3-dioxoisoindolin-5-yl)piperazin-1-yl)methyl)piperidin-1-yl)pyrimidin-4-yl)amino)-N,1-dimethyl-2-oxo-1,2-dihydroquinoline-3-carboxamide], for which, at BCL6 [1], the EC50 was greater than 100 nM. This compound also showed an IC50 against BCL6 [2] of no less than 100 nM.
Take `CNC(=O)COc1cc2cc(Nc3nc(N4CCC5(CN(CC6CCN(c7cccc8c7C(=O)N(C7CCC(=O)NC7=O)C8=O)CC6)C5)C4)ncc3Cl)ccc2n(C(C)C)c1=O` (stereo not shown) [compound 519, 2-{[6-({5-chloro-2-[2-({1-[2-(2,6-dioxopiperidin-3-yl)-1,3-dioxo-2,3-dihydro-1H-isoindol-4-yl]piperidin-4-yl}methyl)-2,6-diazaspiro[3.4]octan-6-yl]pyrimidin-4-yl}amino)-2-oxo-1-(propan-2-yl)-1,2-dihydroquinolin-3-yl]oxy}-N-methylacetamide]: the IC50 at BCL6 [1] (read-out: IC50) is less than 10 nM. This compound displayed a Dmax on BCL6 [2] of no less than 70%.
`Cn1c(=O)c(-n2ccnc2)cc2cc(Nc3nc(N4CCC(CN5CCN(c6ccc7c(c6)C(=O)N(C6CCC(=O)NC6=O)C7=O)CC5)CC4)ncc3Cl)ccc21` (stereo not shown) [compound 224, 5-(4-((1-(4-((3-(1H-imidazol-1-yl)-1-methyl-2-oxo-1,2-dihydroquinolin-6-yl)amino)-5-chloropyrimidin-2-yl)piperidin-4-yl)methyl)piperazin-1-yl)-2-(2,6-dioxopiperidin-3-yl)isoindoline-1,3-dione] displayed an EC50 at BCL6 [1] greater than 100 nM. Besides, the IC50 at BCL6 [2] was no less than 100 nM.
For `CNC(=O)COc1cc2cc(Nc3nc(N4CCN(CC5CCN(c6ccc7c(c6)C(=O)N(C6CCC(=O)NC6=O)C7=O)CC5)C(=O)C4)ncc3Cl)ccc2n(C)c1=O` (stereo not shown) [compound 201, 2-((6-((5-chloro-2-(4-((1-(2-(2,6-dioxopiperidin-3-yl)-1,3-dioxoisoindolin-5-yl)piperidin-4-yl)methyl)-3-oxopiperazin-1-yl)pyrimidin-4-yl)amino)-1-methyl-2-oxo-1,2-dihydroquinolin-3-yl)oxy)-N-methylacetamide], the EC50 at BCL6 [1] was 10 to 50 nM. Also, on BCL6 [2], the IC50 was no less than 100 nM and the Dmax was no less than 70%.
The compound `CONC(=O)COc1cc2cc(Nc3nc(N4CCC(CN5CCN(c6ccc7c(c6)C(=O)N(C6CCC(=O)NC6=O)C7=O)CC5)CC4)ncc3Cl)ccc2n(C)c1=O` (stereo not shown) [compound 209, 2-((6-((5-chloro-2-(4-((4-(2-(2,6-dioxopiperidin-3-yl)-1,3-dioxoisoindolin-5-yl)piperazin-1-yl)methyl)piperidin-1-yl)pyrimidin-4-yl)amino)-1-methyl-2-oxo-1,2-dihydroquinolin-3-yl)oxy)-N-methoxyacetamide] came in with an EC50 on BCL6 [1] greater than 100 nM. Also, at BCL6 [2], the IC50 was in the range of 10 to 50 nM and the Dmax was no less than 70%.
With `CC(=O)COc1cc2cc(Nc3nc(N4CCC(C(=O)N5CCN(c6ccc7c(c6)C(=O)N(C6CCC(=O)NC6=O)C7=O)CC5)CC4)ncc3Cl)ccc2n(C)c1=O` (stereo not shown) [compound 153, 5-(4-(1-(5-chloro-4-((1-methyl-2-oxo-3-(2-oxopropoxy)-1,2-dihydroquinolin-6-yl)amino)pyrimidin-2-yl)piperidine-4-carbonyl)piperazin-1-yl)-2-(2,6-dioxopiperidin-3-yl)isoindoline-1,3-dione], at BCL6 [1] (setting [3]), the IC50 was 50 to 100 nM. The Dmax on BCL6 [2] (maximum, class symbols A-C) was no less than 70%. At BCL6 [2], the DC50 is less than 10 nM.
`CNC(=O)COc1cc2cc(Nc3nc(N4CCC(CN5CC6(CCN(c7ccc8c(c7)C(=O)N(C7CCC(=O)NC7=O)C8=O)C6)C5)CC4)ncc3Cl)ccc2n(C(C)C)c1=O` (stereo not shown) [compound 500, 2-{[6-({5-chloro-2-[4-({6-[2-(2,6-dioxopiperidin-3-yl)-1,3-dioxo-2,3-dihydro-1H-isoindol-5-yl]-2,6-diazaspiro[3.4]octan-2-yl}methyl)piperidin-1-yl]pyrimidin-4-yl}amino)-2-oxo-1-(propan-2-yl)-1,2-dihydroquinolin-3-yl]oxy}-N-methylacetamide]: at BCL6 [1] (read-out: IC50), the IC50 is less than 10 nM. In addition, the Dmax at BCL6 [2] lay within 50 to 70%.
The matching figures for `CNC(=O)COc1cc2cc(Nc3nc(N4CCN(CC5CC6(C5)CN(c5ccc7c(c5)C(=O)N(C5CCC(=O)NC5=O)C7=O)C6)CC4)ncc3Cl)ccc2n(C(C)C)c1=O` (stereo not shown) [compound 523, 2-{[6-({5-chloro-2-[4-({2-[2-(2,6-dioxopiperidin-3-yl)-1,3-dioxo-2,3-dihydro-1H-isoindol-5-yl]-2-azaspiro[3.3]heptan-6-yl}methyl)piperazin-1-yl]pyrimidin-4-yl}amino)-2-oxo-1-(propan-2-yl)-1,2-dihydroquinolin-3-yl]oxy}-N-methylacetamide]: less than 10 nM and 50 to 70%.
With `CNC(=O)COc1cc2cc(Nc3nc(N4CCC(CN5CC6(CCN(c7cccc8c7CN(C7CCC(=O)NC7=O)C8=O)CC6)C5)CC4)ncc3Cl)ccc2n(C(C)C)c1=O` (stereo not shown) [compound 448, 2-{[6-({5-chloro-2-[4-({7-[2-(2,6-dioxopiperidin-3-yl)-1-oxo-2,3-dihydro-1H-isoindol-4-yl]-2,7-diazaspiro[3.5]nonan-2-yl}methyl)piperidin-1-yl]pyrimidin-4-yl}amino)-2-oxo-1-(propan-2-yl)-1,2-dihydroquinolin-3-yl]oxy}-N-methylacetamide], the IC50 at BCL6 [1] (read-out: IC50) is less than 10 nM. The compound also yielded a Dmax at BCL6 [2] of 50 to 70%.
In the case of `CNC(=O)COc1cc2cc(Nc3nc(N4CCC(C(C)(C)N5CCN(c6ccc7c(c6)C(=O)N(C6CCC(=O)NC6=O)C7=O)CC5)CC4)ncc3Cl)ccc2n(C)c1=O` (stereo not shown) [compound 200, 2-((6-((5-chloro-2-(4-(2-(4-(2-(2,6-dioxopiperidin-3-yl)-1,3-dioxoisoindolin-5-yl)piperazin-1-yl)propan-2-yl)piperidin-1-yl)pyrimidin-4-yl)amino)-1-methyl-2-oxo-1,2-dihydroquinolin-3-yl)oxy)-N-methylacetamide], at BCL6 [1], the EC50 is greater than 100 nM. On BCL6 [2], this compound returned an IC50 of 10 to 50 nM and a Dmax of 50 to 70%.
For `CC(=O)COc1cc2cc(Nc3nc(N4CC(OCCN5CCN(c6ccc7c(c6)C(=O)N(C6CCC(=O)NC6=O)C7=O)CC5)C4)ncc3Cl)ccc2n(C)c1=O` (stereo not shown) [compound 172, 5-(4-(2-((1-(5-chloro-4-((1-methyl-2-oxo-3-(2-oxopropoxy)-1,2-dihydroquinolin-6-yl)amino)pyrimidin-2-yl)azetidin-3-yl)oxy)ethyl)piperazin-1-yl)-2-(2,6-dioxopiperidin-3-yl)isoindoline-1,3-dione], the IC50 at BCL6 [1] (setting [3]) was no less than 100 nM. Moreover, the DC50 on BCL6 [2] is greater than 100 nM.
For the compound `CNC(=O)COc1cc2cc(Nc3nc(N4CCC(C5(N6CCC(c7cc(OC)cc(C(=O)NC8CCC(=O)NC8=O)c7F)CC6)CC5)CC4)ncc3Cl)ccc2n(C)c1=O` (stereo not shown) [compound 480, 3-[1-(1-{1-[5-chloro-4-({1-methyl-3-[(methylcarbamoyl)methoxy]-2-oxo-1,2-dihydroquinolin-6-yl}amino)pyrimidin-2-yl]piperidin-4-yl}cyclopropyl)piperidin-4-yl]-N-(2,6-dioxopiperidin-3-yl)-2-fluoro-5-methoxybenzamide], the IC50 on BCL6 [1] (read-out: IC50) lay within 10 to 50 nM. In addition, the greatest degradation seen (Dmax) on BCL6 [2] is less than 50%.
`CNC(=O)[C@H](C)Oc1cc2cc(Nc3nc(N4CCC(CN5CCN(c6ccc7c(c6)C(=O)N([C@@H]6CCC(=O)NC6=O)C7=O)CC5)CC4)ncc3Cl)ccc2n(C)c1=O` [compound 213, (S)-2-((6-((5-chloro-2-(4-((4-(2-((R)-2,6-dioxopiperidin-3-yl)-1,3-dioxoisoindolin-5-yl)piperazin-1-yl)methyl)piperidin-1-yl)pyrimidin-4-yl)amino)-1-methyl-2-oxo-1,2-dihydroquinolin-3-yl)oxy)-N-methylpropanamide] had an EC50 on BCL6 [1] greater than 100 nM. The same compound came in with an IC50 on BCL6 [2] of no less than 100 nM.

The values are drawn from US12310975B2, “Modulators of BCL6 proteolysis and associated methods of use” (Arvinas Operations, Inc., priority 2019, dated 2025).
